Data as given in ChEMBL document CHEMBL4627396 (J Med Chem, 2020).
pIC50: −log10 of the molar value. Calls of active or inactive are those of the source. The calls are words filed in the database; no cut-off is given here.

Key:
[1] = Drug metabolism in mouse microsomes; assay type: ADME, Microsome; conditions: read-out: Drug metabolism
[2] = target: T1, Dual specificity mitogen-activated protein kinase kinase 5 (Homo sapiens, UniProt Q13163)
T1 sequence (Q13163 whole entry): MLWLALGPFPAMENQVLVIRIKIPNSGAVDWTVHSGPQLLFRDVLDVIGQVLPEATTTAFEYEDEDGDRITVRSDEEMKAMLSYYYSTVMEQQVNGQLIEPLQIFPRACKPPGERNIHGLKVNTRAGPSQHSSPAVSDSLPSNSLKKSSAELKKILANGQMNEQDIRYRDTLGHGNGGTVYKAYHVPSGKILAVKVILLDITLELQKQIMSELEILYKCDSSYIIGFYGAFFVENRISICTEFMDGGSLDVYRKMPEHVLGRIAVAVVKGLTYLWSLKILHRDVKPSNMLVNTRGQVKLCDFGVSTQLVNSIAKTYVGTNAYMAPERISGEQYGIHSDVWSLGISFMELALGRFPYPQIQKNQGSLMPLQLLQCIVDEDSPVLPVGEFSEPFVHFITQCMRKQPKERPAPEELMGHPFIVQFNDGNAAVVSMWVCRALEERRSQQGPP

[3] = Drug metabolism in human hepatocytes assessed per million cells; assay type: ADME, cell-based, Hepatocyte
[4] = target: Mitogen-activated protein kinase kinase kinase 11 (Homo sapiens, UniProt Q16584)
Chain of Mitogen-activated protein kinase kinase kinase 11 (Q16584 whole entry): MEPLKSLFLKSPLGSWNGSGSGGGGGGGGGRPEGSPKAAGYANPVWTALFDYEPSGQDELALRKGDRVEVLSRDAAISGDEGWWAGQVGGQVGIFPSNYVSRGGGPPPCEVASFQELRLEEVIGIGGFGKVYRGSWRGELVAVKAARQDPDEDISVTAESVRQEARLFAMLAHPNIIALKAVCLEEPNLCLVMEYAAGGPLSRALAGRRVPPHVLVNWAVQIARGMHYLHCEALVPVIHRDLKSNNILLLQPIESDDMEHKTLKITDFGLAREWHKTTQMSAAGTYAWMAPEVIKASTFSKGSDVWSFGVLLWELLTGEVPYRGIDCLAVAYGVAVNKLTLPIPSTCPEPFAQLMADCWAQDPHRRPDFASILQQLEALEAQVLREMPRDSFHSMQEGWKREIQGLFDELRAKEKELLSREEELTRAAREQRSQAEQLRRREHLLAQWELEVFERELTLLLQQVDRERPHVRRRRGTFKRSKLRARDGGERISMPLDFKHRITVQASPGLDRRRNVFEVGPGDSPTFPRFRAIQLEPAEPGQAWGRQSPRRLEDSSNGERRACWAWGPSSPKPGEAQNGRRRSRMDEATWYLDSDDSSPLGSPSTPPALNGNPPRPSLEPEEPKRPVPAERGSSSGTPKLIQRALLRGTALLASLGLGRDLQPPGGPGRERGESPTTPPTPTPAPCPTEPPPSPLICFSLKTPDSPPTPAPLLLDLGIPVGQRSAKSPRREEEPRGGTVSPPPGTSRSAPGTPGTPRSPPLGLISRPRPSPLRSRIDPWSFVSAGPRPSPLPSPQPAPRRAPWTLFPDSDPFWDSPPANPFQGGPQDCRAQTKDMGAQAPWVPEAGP

[5] = Toxicity in NSG mouse assessed as adverse effect at 40 mg/kg administered once daily for 21 days; assay type: organism-based; conditions: in vivo
Cytochrome P450 2D6 = Cytochrome P450 2D6 (Homo sapiens, UniProt P10635); experiment: Inhibition of CYP2D6 (unknown origin); assay type: ADME
Chain of Cytochrome P450 2D6 (P10635 whole entry): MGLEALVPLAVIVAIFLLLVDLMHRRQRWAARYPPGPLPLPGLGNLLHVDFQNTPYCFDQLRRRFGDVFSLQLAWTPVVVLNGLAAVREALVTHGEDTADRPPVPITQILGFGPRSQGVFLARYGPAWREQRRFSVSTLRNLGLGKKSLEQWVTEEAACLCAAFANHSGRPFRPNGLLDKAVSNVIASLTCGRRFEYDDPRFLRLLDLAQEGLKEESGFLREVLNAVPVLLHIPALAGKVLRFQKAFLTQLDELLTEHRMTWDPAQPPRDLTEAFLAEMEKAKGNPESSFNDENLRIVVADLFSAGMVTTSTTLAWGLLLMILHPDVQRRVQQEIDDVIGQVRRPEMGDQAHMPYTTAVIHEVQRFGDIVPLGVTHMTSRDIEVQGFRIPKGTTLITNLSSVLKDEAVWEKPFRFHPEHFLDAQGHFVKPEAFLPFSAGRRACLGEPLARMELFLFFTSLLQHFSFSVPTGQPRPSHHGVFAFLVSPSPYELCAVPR

in vivo = conditions: Crl:CD Sprague-Dawley, rat, iv, 1 mg/kg
Cytochrome P450 3A4 = Cytochrome P450 3A4 (Homo sapiens, UniProt P08684); experiment: Inhibition of CYP3A4 (unknown origin); assay type: ADME
Chain of Cytochrome P450 3A4 (P08684 whole entry): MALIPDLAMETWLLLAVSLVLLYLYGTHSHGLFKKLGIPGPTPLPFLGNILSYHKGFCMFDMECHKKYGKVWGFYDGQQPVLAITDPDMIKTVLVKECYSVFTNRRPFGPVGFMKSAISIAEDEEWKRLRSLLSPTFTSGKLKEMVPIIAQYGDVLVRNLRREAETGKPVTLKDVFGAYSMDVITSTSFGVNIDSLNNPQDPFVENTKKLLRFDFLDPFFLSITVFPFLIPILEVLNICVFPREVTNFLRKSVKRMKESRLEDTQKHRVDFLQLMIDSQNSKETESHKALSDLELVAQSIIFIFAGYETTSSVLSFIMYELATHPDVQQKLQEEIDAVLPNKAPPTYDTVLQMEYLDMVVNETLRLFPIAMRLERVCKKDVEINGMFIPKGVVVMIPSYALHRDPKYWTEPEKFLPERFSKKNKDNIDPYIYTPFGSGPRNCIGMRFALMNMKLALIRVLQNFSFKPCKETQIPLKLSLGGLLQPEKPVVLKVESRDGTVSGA

[6] = target: T2, Receptor-interacting serine/threonine-protein kinase 4 (Homo sapiens, UniProt P57078)
T2 sequence (P57078 whole entry): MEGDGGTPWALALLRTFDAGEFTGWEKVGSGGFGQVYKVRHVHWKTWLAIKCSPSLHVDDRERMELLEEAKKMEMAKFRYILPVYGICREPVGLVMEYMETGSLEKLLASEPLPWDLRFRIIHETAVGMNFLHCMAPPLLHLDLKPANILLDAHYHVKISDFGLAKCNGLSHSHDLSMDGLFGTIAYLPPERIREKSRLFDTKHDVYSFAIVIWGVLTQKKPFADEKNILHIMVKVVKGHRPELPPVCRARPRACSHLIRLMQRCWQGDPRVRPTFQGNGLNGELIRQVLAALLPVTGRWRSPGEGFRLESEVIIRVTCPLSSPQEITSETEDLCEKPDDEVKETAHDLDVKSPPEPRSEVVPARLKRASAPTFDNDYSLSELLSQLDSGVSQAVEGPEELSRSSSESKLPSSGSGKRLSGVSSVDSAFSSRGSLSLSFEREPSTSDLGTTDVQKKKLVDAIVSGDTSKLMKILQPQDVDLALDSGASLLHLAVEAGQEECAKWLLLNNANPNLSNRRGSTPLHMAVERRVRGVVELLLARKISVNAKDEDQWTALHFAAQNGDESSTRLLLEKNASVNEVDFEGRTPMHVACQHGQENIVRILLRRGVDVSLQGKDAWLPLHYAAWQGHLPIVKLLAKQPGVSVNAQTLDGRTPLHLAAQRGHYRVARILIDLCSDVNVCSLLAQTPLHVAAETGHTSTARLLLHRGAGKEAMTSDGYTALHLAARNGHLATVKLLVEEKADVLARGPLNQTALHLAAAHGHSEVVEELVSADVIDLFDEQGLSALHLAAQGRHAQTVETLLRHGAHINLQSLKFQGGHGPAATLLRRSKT

[7] = target: Phosphatidylinositol 4-phosphate 5-kinase type-1 gamma (Homo sapiens, UniProt O60331)
Chain of Phosphatidylinositol 4-phosphate 5-kinase type-1 gamma (O60331 whole entry): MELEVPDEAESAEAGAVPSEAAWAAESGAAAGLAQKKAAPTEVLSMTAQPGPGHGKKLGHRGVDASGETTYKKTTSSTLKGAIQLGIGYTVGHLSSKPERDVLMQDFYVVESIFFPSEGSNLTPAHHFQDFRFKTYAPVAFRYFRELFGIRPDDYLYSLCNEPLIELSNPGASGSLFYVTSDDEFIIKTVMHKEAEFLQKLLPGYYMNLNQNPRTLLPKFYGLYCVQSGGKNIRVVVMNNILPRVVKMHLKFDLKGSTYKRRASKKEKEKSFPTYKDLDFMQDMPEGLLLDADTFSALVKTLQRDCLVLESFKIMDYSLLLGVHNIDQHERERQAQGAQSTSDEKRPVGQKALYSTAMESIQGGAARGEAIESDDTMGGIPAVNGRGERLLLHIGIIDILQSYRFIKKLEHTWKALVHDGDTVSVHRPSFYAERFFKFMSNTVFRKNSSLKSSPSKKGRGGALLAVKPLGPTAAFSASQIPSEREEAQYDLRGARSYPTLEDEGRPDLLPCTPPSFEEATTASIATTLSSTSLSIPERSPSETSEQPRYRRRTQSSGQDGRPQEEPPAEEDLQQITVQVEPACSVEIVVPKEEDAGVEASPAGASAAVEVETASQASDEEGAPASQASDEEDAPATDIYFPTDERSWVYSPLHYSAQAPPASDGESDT

[8] = Drug metabolism in rat microsomes; assay type: ADME, Microsome; conditions: read-out: Drug metabolism
Cytochrome P450 1A2 = target: T3, Cytochrome P450 1A2 (Homo sapiens, UniProt P05177); experiment: Inhibition of CYP1A2 (unknown origin); assay type: ADME
T3 sequence (P05177 whole entry): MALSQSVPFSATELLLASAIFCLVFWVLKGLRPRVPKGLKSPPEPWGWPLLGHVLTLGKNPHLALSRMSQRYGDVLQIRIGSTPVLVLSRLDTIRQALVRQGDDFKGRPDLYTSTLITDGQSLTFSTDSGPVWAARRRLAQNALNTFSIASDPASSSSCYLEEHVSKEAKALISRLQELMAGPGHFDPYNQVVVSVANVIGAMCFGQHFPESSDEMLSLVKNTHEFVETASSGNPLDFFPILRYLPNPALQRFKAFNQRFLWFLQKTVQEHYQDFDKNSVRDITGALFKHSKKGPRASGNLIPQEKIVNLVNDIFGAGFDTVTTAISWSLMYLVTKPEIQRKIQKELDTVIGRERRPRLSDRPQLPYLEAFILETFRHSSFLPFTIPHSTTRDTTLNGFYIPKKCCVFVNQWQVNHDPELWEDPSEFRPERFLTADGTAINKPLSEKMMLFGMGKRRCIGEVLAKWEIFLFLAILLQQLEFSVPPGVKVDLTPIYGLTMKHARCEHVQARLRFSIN

[9] = Drug metabolism in rat plasma assessed as amide hydrolysis; assay type: ADME, cell-free
[10] = Drug metabolism in human microsomes; assay type: ADME, Microsome; conditions: read-out: Drug metabolism
Mus musculus [11] = experiment: Antidiabetic activity in diet induced obese C57Bl/6J mouse model assessed as reduction in peak blood glucose level at 25 mg/kg, po administered twice daily for 14 days followed by glucose challenge at 4 hrs post last dose and measured after 10 to 90 mins by OGTT; assay type: functional, organism-based
[12] = Drug excretion in Crl:CD Sprague-Dawley rat urine; assay type: ADME; conditions: in vivo
[13] = Drug metabolism in rat hepatocytes assessed per million cells; assay type: ADME, cell-based, Hepatocyte
Mus musculus [14] = experiment: Antidiabetic activity in diet induced obese C57Bl/6J mouse model assessed as reduction in blood glucose level at 25 to 50 mg/kg, po administered 4 hrs prior to glucose stimulation and measured after 10 to 90 mins by OGTT; assay type: functional, organism-based
Mus musculus [15] = experiment: Antidiabetic activity in diet induced obese C57Bl/6J mouse model assessed as reduction in baseline blood glucose level at 25 mg/kg, po administered twice daily for 14 days followed by glucose challenge at 4 hrs post last dose and measured after 10 to 90 mins by OGTT; assay type: functional, organism-based
Mus musculus [16] = experiment: Antidiabetic activity in diet induced obese C57Bl/6J mouse model assessed as change in blood glucose AUC at 25 mg/kg, po administered twice daily for 14 days followed by glucose challenge at 4 hrs post last dose and measured after 10 to 90 mins by OGTT; assay type: functional, organism-based
[17] = Drug metabolism in rat plasma assessed as oxidation; assay type: ADME, cell-free
Mus musculus [18] = experiment: Antidiabetic activity in diet induced obese C57Bl/6J mouse model assessed as reduction in plasma insulin level at 25 to 50 mg/kg, po administered 4 hrs prior to glucose stimulation and measured after 10 to 90 mins by OGTT; assay type: functional, organism-based
Mus musculus [19] = experiment: Antidiabetic activity in diet induced obese C57Bl/6J mouse model assessed as reduction in plasma insulin level at 25 mg/kg, po administered twice daily for 14 days followed by glucose challenge at 4 hrs post last dose and measured after 10 to 90 mins by OGTT; assay type: functional, organism-based
[20] = Toxicity in diet induced obese C57Bl/6J mouse model assessed as bloating of gastrointestinal tract at 50 mg/kg, po administered twice daily for 14 days; assay type: organism-based; conditions: in vivo
[21] = Drug metabolism in rat plasma assessed as acetylation; assay type: ADME, cell-free
[22] = target: Calcium/calmodulin-dependent protein kinase type 1D (Homo sapiens) (UniProt Q8IU85)
Chain of Calcium/calmodulin-dependent protein kinase type 1D (Homo sapiens) (Q8IU85 whole entry, looked up): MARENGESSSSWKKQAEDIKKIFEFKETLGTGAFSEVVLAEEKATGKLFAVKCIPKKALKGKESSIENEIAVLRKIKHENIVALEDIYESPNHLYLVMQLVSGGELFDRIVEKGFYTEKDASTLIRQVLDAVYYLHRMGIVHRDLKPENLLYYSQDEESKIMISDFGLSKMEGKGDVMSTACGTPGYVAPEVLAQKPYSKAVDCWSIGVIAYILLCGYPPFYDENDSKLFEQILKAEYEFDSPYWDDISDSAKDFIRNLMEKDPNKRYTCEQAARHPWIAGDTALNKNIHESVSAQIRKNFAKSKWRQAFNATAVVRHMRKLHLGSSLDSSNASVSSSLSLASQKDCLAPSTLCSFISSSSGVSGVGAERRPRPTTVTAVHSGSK

[23] = target: Death-associated protein kinase 3 (Homo sapiens) (UniProt O43293); conditions: 10 uM
Chain of Death-associated protein kinase 3 (Homo sapiens) (O43293 whole entry, looked up): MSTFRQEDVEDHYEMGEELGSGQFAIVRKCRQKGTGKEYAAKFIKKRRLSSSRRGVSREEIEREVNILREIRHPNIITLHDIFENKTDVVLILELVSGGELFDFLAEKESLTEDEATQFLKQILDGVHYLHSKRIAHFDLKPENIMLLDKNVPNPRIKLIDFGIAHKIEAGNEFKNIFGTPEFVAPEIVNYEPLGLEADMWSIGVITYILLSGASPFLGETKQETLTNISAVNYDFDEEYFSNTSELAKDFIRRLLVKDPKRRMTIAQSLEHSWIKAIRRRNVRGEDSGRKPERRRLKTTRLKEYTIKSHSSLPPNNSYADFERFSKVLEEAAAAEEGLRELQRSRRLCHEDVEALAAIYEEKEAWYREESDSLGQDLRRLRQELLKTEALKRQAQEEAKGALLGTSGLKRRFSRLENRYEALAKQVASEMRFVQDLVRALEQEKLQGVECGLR

[24] = target: T4, Serine/threonine-protein kinase DCLK1 (Homo sapiens) (UniProt O15075); conditions: 10 uM
T4 sequence (whole entry): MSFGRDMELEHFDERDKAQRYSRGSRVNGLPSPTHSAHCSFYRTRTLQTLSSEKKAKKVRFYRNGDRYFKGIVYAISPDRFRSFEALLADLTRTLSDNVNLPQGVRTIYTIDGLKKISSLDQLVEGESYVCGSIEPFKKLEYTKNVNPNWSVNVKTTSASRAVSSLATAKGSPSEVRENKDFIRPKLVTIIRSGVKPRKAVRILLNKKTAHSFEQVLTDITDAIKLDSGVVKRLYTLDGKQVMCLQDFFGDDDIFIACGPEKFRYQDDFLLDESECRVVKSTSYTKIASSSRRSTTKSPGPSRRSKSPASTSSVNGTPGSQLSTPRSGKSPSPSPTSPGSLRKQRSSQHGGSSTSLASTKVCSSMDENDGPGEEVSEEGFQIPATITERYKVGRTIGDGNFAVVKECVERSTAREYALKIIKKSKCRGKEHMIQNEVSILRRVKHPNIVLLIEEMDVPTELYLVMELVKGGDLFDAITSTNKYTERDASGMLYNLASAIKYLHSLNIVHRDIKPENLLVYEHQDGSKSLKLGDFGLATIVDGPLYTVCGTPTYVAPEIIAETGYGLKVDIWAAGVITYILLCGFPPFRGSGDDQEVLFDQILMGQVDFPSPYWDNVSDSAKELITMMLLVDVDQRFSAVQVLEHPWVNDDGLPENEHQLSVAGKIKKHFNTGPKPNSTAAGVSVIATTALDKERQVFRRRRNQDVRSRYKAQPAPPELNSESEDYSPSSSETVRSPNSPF

[25] = target: T5, Tyrosine-protein kinase SYK (Homo sapiens, UniProt P43405)
[26] = target: T5, Tyrosine-protein kinase SYK; conditions: 10 uM
[27] = target: T6, Calcium/calmodulin-dependent protein kinase type IV (Homo sapiens) (UniProt Q16566); conditions: 10 uM
T6 sequence (whole entry): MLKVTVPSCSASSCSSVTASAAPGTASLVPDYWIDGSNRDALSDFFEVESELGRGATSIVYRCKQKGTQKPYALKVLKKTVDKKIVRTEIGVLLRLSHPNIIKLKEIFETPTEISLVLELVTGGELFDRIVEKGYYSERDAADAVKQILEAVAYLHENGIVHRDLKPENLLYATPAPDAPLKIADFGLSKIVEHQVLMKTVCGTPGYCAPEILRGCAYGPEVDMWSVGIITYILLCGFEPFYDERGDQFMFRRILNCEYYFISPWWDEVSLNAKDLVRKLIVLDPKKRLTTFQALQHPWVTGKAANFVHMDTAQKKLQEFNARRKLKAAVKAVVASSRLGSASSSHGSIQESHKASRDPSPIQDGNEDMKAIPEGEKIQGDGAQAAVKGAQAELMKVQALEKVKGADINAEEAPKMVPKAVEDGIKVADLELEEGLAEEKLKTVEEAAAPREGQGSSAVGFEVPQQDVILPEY

[28] = target: Glycogen synthase kinase-3 beta (Homo sapiens) (UniProt P49841); conditions: 10 uM
Chain of Glycogen synthase kinase-3 beta (Homo sapiens) (P49841 whole entry, looked up): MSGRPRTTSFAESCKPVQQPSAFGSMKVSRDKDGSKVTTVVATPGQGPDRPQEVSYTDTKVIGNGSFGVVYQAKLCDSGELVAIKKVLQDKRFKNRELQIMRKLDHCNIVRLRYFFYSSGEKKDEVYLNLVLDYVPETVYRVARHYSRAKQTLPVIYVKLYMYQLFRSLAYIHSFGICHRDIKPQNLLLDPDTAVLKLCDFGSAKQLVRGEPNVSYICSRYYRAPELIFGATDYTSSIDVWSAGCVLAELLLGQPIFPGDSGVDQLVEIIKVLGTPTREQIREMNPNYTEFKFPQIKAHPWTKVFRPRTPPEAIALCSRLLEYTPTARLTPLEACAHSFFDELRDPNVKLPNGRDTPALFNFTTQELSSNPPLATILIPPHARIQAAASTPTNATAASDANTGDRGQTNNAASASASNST

CC(C)c1cc(Nc2nc(N3CCC[C@H](N)C3)ncc2C(N)=O)cc(C(C)C)n1
microsomal CLint [1]: 6 µL/min/mg | pIC50 [2]: 7.60 | Drug metabolism [3]: 19 µL/min | pIC50 [4]: 5.56 | Activity [5]: Non-Toxic | pIC50 (Cytochrome P450 2D6): < 4.70 | Vd (in vivo): 18.5 L/kg | pIC50 (Cytochrome P450 3A4): < 4.70 | pIC50 [6]: 5.24 | pIC50 [7]: 4.95 | microsomal CLint [8]: 3 µL/min/mg | pIC50 (Cytochrome P450 1A2): < 4.70

CC(C)(C#N)c1cc(Nc2nc(N3CCC[C@H](N)C3)ncc2C(N)=O)cc(C(C)(C)C#N)c1
Drug metabolism [9]: Metabolite_Detected | microsomal CLint [10]: 13 µL/min/mg | Activity (Mus musculus [11]): Active | Drug excretion [12]: Metabolite_Detected | Drug metabolism [13]: 11 µL/min | Activity (Mus musculus [14]): Active | pIC50 (Cytochrome P450 2D6): < 4.70 | pIC50 (Cytochrome P450 3A4): < 4.70 | Activity (Mus musculus [15]): Active | Activity (Mus musculus [16]): inactive | Drug metabolism [17]: Metabolite_Detected | Activity (Mus musculus [18]): Active | Activity (Mus musculus [19]): Active | microsomal CLint [8]: < 1 µL/min/mg | pIC50 (Cytochrome P450 1A2): < 4.70 | Activity [20]: Toxic | Drug metabolism [21]: Metabolite_Detected

NCCNc1ncc(C(N)=O)c(Nc2cccc(C(F)(F)F)c2)n1
ΔTm [22]: 5.44 °C | ΔTm [23]: 4.05 °C | ΔTm [24]: 0.11 °C | pIC50 [25]: 8.15 | ΔTm [26]: 7.51 °C | ΔTm [27]: 1.34 °C | ΔTm [28]: 3.4 °C
